Laboratory results reported in US11180809B2, “Biological markers for identifying patients for treatment with abiraterone acetate” (JANSSEN PHARMACEUTICA NV, priority 2014, dated 2021).

Legend:
[1] = test system: metastatic castration-resistant prostate cancer (mCRPC); experiment: COU-AA-302: multivariate biomarker panel classifier (low/high risk) versus radiographic progression free survival, independent test set; type: in vivo, human; conditions: test set (AA group), multivariate panel cutpoint 0.9977
Text: (§1) COU-AA-302 is a Phase 3, multinational, randomized, double-blind, placebo-controlled study comparing the efficacy and safety of AA and prednisone (AA+P) to placebo and prednisone (Placebo+P) in medically or surgically castrated asymptomatic or mildly symptomatic men with mCRPC who have not received cytotoxic chemotherapy. Patients were assigned in a 1:1 ratio to receive either AA+P or Placebo+P and were stratified based on ECOG performance status of 0 or 1, as discussed in Clinical Study Protocol: A Phase 3 Randomized, Double-blind, Placebo-controlled Study of Abiraterone Acetate (CB7630) Plus Prednisone in Asymptomatic or Mildly Symptomatic Subjects with Metastatic Castration Resistant Prostate Cancer. Protocol COU-AA-302; EudraCT No. 2008-008004-41; 9 Jul. 2012.
(§2) All subjects in Study COU-AA-302, regardless of treatment group, received concurrent prednisone. See Clinical Study Report: CSR COU-AA-302 2012. A Phase 3, Randomized, Double-Blind, Placebo-Controlled Study of Abiraterone Acetate Plus Prednisone in Asymptomatic or Mildly Symptomatic Subjects With Metastatic Castration-Resistant Prostate Cancer. Issue Date: 26 Oct. 2012. Subjects who received AA+P are referred to herein as the “AA group” and in tables as “AA.” Subjects who received Placebo+P are referred to herein as the “Placebo group” and in tables as “Placebo.” Additional study related details can be obtained from the COU-AA-302 clinical study protocol or clinical study report.
A multivariate biomarker panel was identified using penalized regression to define a classifier that predicts radiographic progression free survival. The model was defined using an elastic net approach for feature selection and model specification. Data was separated into training and testing sets using a 70%-30% split. Within the training data, 10-fold cross-validation was used to define model parameters. Elastic net models have two parameters: alpha and lambda. Alpha is the elastic net penalty and determines the specific mixture of penalties that will be applied to limit complexity of the model. Lambda is the regularization penalty which determines the magnitude of the parameter used to limit complexity. After optimizing alpha and lambda using cross-validation, the values were used to define the cox regression model on the training data. The model is used to predict the relative risk of progression free-survival for all subjects in the training set. Then, time-dependent ROC analysis was used to determine the predictive power of the model and dichotomize the relative risk into two groups associated with low and high risk at the timepoint at which 90% of subjects with radiographic progression had observed recurrence of disease (t=20.48 months). This model, consisting of regression coefficients, timepoint and cutoff to discriminate between low and high risk, was applied to predict the relative risk of subjects in the independent test data and evaluate the predictive power and association with time to event of the classifier. This evaluation is repeated on the placebo data to confirm that the classifier is predictive of response to Abiraterone and not prognostic of outcome independent of treatment. Features used in the model building process included all single gene markers detected in greater than 50% of samples to exclude low expressing genes. The model was optimized to alpha=0.5 and lambda=0.209. Using these parameters, the optimized survival models were defined as described in Table 6.
Table 7 lists the predictive metrics which describe the performance of these models on the independent test and placebo group data.
Table 8 lists the statistics describing the association between classifier predictions and time to radiographic progression free survival.

[2] = test system: metastatic castration-resistant prostate cancer (mCRPC); experiment: COU-AA-302 Phase 3 study: Cox regression association of tumor mRNA biomarker expression with rPFS/OS within the AA group; type: in vivo, human
Text: as §1, §2
Formalin fixed paraffin embedded (FFPE) tumor samples from 258 subjects who optionally consented for RNA analysis were collected and shipped to the central laboratory (Covance, Ind.) for RNA analysis. FFPE samples from 152 subjects had sufficient RNA for TaqMan® Low Density Array (TLDA) analysis. Samples from the other 106 subjects were excluded either due to lack of tumor or low RNA yield. Of the 152 samples evaluated by TLDA, samples from 42 subjects were excluded from data analysis due to technical failures (no detectable gene expression or batch effects induced by microdissection of samples with low tumor content or low RNA input mass [<250 ng of total RNA]). The remaining evaluable samples from 110 subjects (Biomarker population) who were part of the ITT population (10%) and who had drug exposure with clinical data for at least one of the efficacy endpoints (rPFS, OS) were included in the analysis. Samples from these subjects were included in the mRNA analysis using the TaqMan® array microfluidic cards.
Raw CT values were filtered to remove values greater than 30. Quadruple replicate CT values were summarized using the geometric mean. Expression values were calculated using the comparative CT method as described in Schmittgen T D, Livak K J. Analyzing real-time PCR data by the comparative Ct method. Nature Protocols. 2008; 3:1101-1108. Briefly, a normalization factor was calculated for each sample using the geometric mean of housekeeping genes (ACTB and GAPDH). Relative expression values of all other transcripts were quantified as the difference between CT and the normalization factor. Transcript expression was calculated by the negation of the relative expression values to account for the inverse relationship between expression and CT. This is equivalent to the log 2 transform of 2^(-DeltaCT).
All statistical tests were interpreted at 5% significance levels (two-sided). For determination of specificity of biomarker association with clinical endpoints in AA group, a P<0.05 in the AA group and a P≥0.2 in the placebo group is required. Demographics and baseline characteristics were compared between the biomarker population and the ITT population using ANOVA (continuous variables) or Chi-Square (categorical variables) tests. […]

[3] = AA group (AA+prednisone), Cox regression with baseline ECOG, continuous log2 expression, (95% CI)
[4] = AA group, Cox regression with baseline ECOG, (95% CI)
[5] = AA group, multivariate Cox regression model

With CC(=O)O[C@H]1CC[C@@]2(C)C(=CC[C@@H]3[C@@H]2CC[C@]2(C)C(c4cccnc4)=CC[C@@H]32)C1 [AA, abiraterone acetate] the “HR, High versus Low risk, time to radiographic progression free survival” value ([1]; 95CI in next cell) was 6.25, the “Median time to radiographic progression free survival, High risk” value ([1]; 95CI in next cell) was 8.2 and the “Event/Total (Perc), rPFS, High risk” value ([1]; percentage of events) was “(100.0)”. The “Event/Total (Perc), rPFS, Low risk” value ([1]; percentage of events) was “(40.0)”, the “Event/Total, rPFS, High risk” value ([1]; timepoint 20.4813) was 4/4 and the “Event/Total, rPFS, Low risk” value ([1]; timepoint 20.4813) was 6/15. For the same compound, the “HR, association of ANLN expression with rPFS (IND)” value [2, 3] was 0.84 (0.72, 0.96), the “HR, association of ANLN expression with rPFS (INV)” value [2, 3] was 0.80 (0.69, 0.93) and the “reduction of the hazard of rPFS event per unit increase in relative expression of ANLN” value ([2]; AA group, 1-0.84, unit = 2-fold difference relative to reference gene) was 16%. The “HR, association of CYP17A1 and cofactors group composite score with OS” value ([2]; AA group, Cox regression) was 0.20, the “HR, association of androgen controlled group composite score with OS” value ([2]; AA group, Cox regression) was 0.31 and the “HR, association of proliferation pathway module with rPFS (INV)” value ([2]; AA group, Cox regression) was 0.63. For the same compound, the “HR, association of CYP17A1 and cofactors group composite score with rPFS (INV)” value [2, 4] was 0.71 (0.37, 1.36), the “HR, association of HSD17B10 expression with rPFS (IND)” value [2, 4] was 0.78 (0.62, 0.98) and the “HR, association of HSD17B10 expression with rPFS (INV)” value [2, 4] was 0.76 (0.62, 0.94). For the same compound, the “HR, association of NUSAP1 expression with rPFS (IND)” value [2, 4] was 0.82 (0.67, 1.00), the “HR, association of NUSAP1 expression with rPFS (INV)” value [2, 4] was 0.78 (0.64, 0.95) and the “HR, association of SRD5A1 expression with rPFS (IND)” value [2, 4] was 0.80 (0.65, 0.98). For the same compound, the “HR, association of SRD5A1 expression with rPFS (INV)” value [2, 4] was 0.83 (0.68, 1.00), the “HR, association of UBE2C expression with rPFS (IND)” value [2, 4] was 0.85 (0.74, 0.98) and the “HR, association of UBE2C expression with rPFS (INV)” value [2, 4] was 0.81 (0.71, 0.93). For the same compound, the “HR, association of ANLN expression with rPFS (IND), corrected for RNA extraction methodology” value [2, 5] was 0.86, the “HR, association of HSD17B10 expression with rPFS (IND), corrected for RNA extraction methodology” value [2, 5] was 0.78 and the “HR, association of NUSAP1 expression with rPFS (IND), corrected for RNA extraction methodology” value [2, 5] was 0.78. For the same compound, the “HR, association of SRD5A1 expression with rPFS (IND), corrected for RNA extraction methodology” value [2, 5] was 0.79 and the “HR, association of UBE2C expression with rPFS (IND), corrected for RNA extraction methodology” value ([2]; AA group, multivariate Cox regression model, trend of association) was 0.88.
